Measured values from PMC4979877 (2016).

Test system: non-cognate duplex (DNA, duplex) GGGTGAGGAGGAGGGAGATCGGTC/TGACCGATCTCCCTCCTCCTCACCC
Experiment: fluorescence titration
Settings: 0.025 M Tris-HCl, pH 7.5, room temperature; probe 12 µM; fluorescence only 1.5-fold up

- binding: weak
Structure (SMILES): CN(C)CCCNC(=O)CCNC(=O)c1cc(NC(=O)c2cc(NC(=O)c3cc(NC(=O)c4cc(NC(=O)C(N)CCNC(=O)c5cc(NC(=O)c6cc(NC(=O)c7cc(NC(=O)c8nc(NC(=O)CCCNC(=O)CCc9cn(-c%10cc%11ccc(O)cc%11oc%10=O)nn9)cn8C)cn7C)cn6C)cn5C)cn4C)cn3C)cn2C)cn1C (stereo not shown)
